These are literature values, as cited in patent US8034838B2, “Composition and method for the treatment of neurological disorders” (priority 2008, dated 2011).

Where only a bound is given, the exact number is not on record here.

One series deals with β-secretase (Homo sapiens, UniProt P56817).
The conditions of series [1]: after administration.

Sequence of β-secretase (P56817 46-501): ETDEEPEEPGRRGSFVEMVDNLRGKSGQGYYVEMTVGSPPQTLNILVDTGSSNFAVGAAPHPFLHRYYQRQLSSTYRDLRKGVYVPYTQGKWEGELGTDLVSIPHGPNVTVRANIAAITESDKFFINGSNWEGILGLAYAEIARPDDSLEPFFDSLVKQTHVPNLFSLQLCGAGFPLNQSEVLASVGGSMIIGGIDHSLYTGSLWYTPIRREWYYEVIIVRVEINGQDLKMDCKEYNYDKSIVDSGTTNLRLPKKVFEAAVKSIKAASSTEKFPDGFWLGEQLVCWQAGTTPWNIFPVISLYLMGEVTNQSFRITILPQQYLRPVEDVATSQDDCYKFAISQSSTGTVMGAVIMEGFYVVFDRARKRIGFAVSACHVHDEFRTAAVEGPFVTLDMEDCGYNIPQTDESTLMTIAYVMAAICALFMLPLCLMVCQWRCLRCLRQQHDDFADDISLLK

In the case of `O=c1c(O)c(-c2cc(O)c(O)c(O)c2)oc2cc(O)cc(O)c12` [myricetin, Myricetin], the “regulation of γ-secretase” value in the series on γ-secretase is reported as “down-regulates”. For the same molecule, the “regulation of β-secretase” value on β-secretase is recorded as “down-regulates”. Besides, the “time to cross the blood brain barrier” value in series [1] was no more than 30 min. Besides, in the series with α-secretase, the “regulation of α-secretase” value is “up-regulates”.
